# Reference: article PMC9518264, “Design and synthesis of novel quinazolinone-based derivatives as EGFR inhibitors with antitumor activity” (Journal of Enzyme Inhibition and Medicinal Chemistry, 2022)
# Where two headings read alike, the source gives them in different places.
# How the values were obtained:
# [1] = system: HS 578T; test: cells; format: cell-based; settings: Homo sapiens, read-out: growth inhibition % (GI%)
# [2] = system: SF-268; test: cells; format: cell-based; settings: Homo sapiens
# [3] = system: A498; test: cells; format: cell-based; settings: Homo sapiens
# [4] = system: HCT-116; test: cells; format: cell-based; settings: Homo sapiens
# [5] = system: COLO-205; test: cells; format: cell-based; settings: Homo sapiens
# [6] = system: HOP-62; test: cells; format: cell-based; settings: Homo sapiens
# [7] = system: HOP-92; test: cells; format: cell-based; settings: Homo sapiens
# [8] = system: T-47D; test: cells; format: cell-based; settings: Homo sapiens, T47D, read-out: growth inhibition % (GI%)
# [9] = system: EKVX; test: cells; format: cell-based; settings: Homo sapiens, read-out: growth inhibition % (GI%)
# [10] = system: SK-MEL-5; test: cells; format: cell-based; settings: Homo sapiens
# [11] = system: UACC-257; test: cells; format: cell-based; settings: Homo sapiens
# [12] = system: MCF7; test: cells; format: cell-based; settings: Homo sapiens
# [13] = system: MOLT-4; test: cells; format: cell-based; settings: Homo sapiens
# [14] = system: RPMI-8226; test: cells; format: cell-based; settings: Homo sapiens
# [15] = system: DU-145; test: cells; format: cell-based; settings: Homo sapiens
# [16] = system: ACHN; test: cells; format: cell-based; settings: Homo sapiens, read-out: growth inhibition % (GI%)
# [17] = system: HCT-15; test: cells; format: cell-based; settings: Homo sapiens
# [18] = system: SK-OV-3; test: cells; format: cell-based; settings: Homo sapiens
# [19] = system: SK-MEL-2; test: cells; format: cell-based; settings: Homo sapiens
# [20] = system: NCI-H522; test: cells; format: cell-based; settings: Homo sapiens
# [21] = system: CCRF-CEM; test: cells; format: cell-based; settings: Homo sapiens, read-out: growth inhibition % (GI%)
# [22] = system: OVCAR-3; test: NCI 60 cell line antiproliferative screening (SRB), Ovarian cancer; settings: Homo sapiens, OVCAR-3, read-out: growth inhibition % (GI%)
# [23] = system: KM12; test: cells; format: cell-based; settings: Homo sapiens
# [24] = system: SW-620; test: cells; format: cell-based; settings: Homo sapiens
# [25] = system: OVCAR-4; test: cells; format: cell-based; settings: Homo sapiens
# [26] = system: TK-10; test: cells; format: cell-based; settings: Homo sapiens
# [27] = system: NCI/ADR-RES; test: cells; format: cell-based; settings: Homo sapiens, read-out: growth inhibition % (GI%)
# [28] = system: NCI-H226; test: cells; format: cell-based; settings: Homo sapiens
# [29] = system: SF-539; test: cells; format: cell-based; settings: Homo sapiens
# [30] = system: 786-0; test: cells; format: cell-based; settings: Homo sapiens
# [31] = system: panel of 60 tumour cell lines; test: NCI 60 cell line antiproliferative screening (SRB), whole panel or subpanels (means, ranges, words); format: cell-based, human; settings: for inhibition at 10 µM: Homo sapiens, 60 cell, mean over the cell line panel, read-out: Mean growth inhibition % (mean GI%)
# [32] = system: A549/ATCC; test: cells; format: cell-based; settings: Homo sapiens
# [33] = system: OVCAR-5; test: cells; format: cell-based; settings: Homo sapiens
# [34] = system: K-562; test: cells; format: cell-based; settings: Homo sapiens
# [35] = system: HCC-2998; test: cells; format: cell-based; settings: Homo sapiens
# [36] = system: SNB-19; test: cells; format: cell-based; settings: Homo sapiens
# [37] = system: SR; test: cells; format: cell-based; settings: Homo sapiens, read-out: growth inhibition % (GI%)
# [38] = system: MALME-3M; test: cells; format: cell-based; settings: Homo sapiens, read-out: growth inhibition % (GI%)
# [39] = system: MDA-MB-231/ATCC; test: NCI 60 cell line antiproliferative screening (SRB), Breast cancer; format: cell-based; settings: Homo sapiens, MDA-MB-231, read-out: growth inhibition % (GI%)
# [40] = system: NCI-H322M; test: cells; format: cell-based; settings: Homo sapiens, read-out: growth inhibition % (GI%)
# [41] = system: SNB-75; test: cells; format: cell-based; settings: Homo sapiens
# [42] = system: SK-MEL-28; test: cells; format: cell-based; settings: Homo sapiens
# [43] = system: U251; test: cells; format: cell-based; settings: Homo sapiens
# [44] = system: BT-549; test: cells; format: cell-based; settings: Homo sapiens
# [45] = system: IGROV1; test: cells; format: cell-based; settings: Homo sapiens
# [46] = system: LOX IMIV; test: cells; format: cell-based; settings: Homo sapiens, 60 cell, read-out: growth inhibition % (GI%)
structure (smiles),measurement,setting,value
"O=C(CSc1nc2ccccc2c(=O)n1-c1ccc(Cl)cc1)NN=Cc1ccc(N2CCCCC2)cc1 [6j, 2-((3–(4-chlorophenyl)-4-oxo-3,4-dihydroquinazolin-2-yl)thio)-N'-(4-(piperidin-1-yl)benzylidene) acetohydrazide]",inhibition at 10 µM,[1]; Hs-578T,62.1%
same,inhibition at 10 µM,"[2]; SF-268, read-out: growth inhibition % (GI%)",65.3%
same,inhibition at 10 µM,"[3]; A498, read-out: growth inhibition % (GI%)",21.5%
same,inhibition at 10 µM,"[4]; HCT-116, read-out: growth inhibition % (GI%)",63.1%
same,inhibition at 10 µM,"[5]; COLO 205, read-out: growth inhibition % (GI%)",17.9%
same,inhibition at 10 µM,"[6]; HOP-62, read-out: growth inhibition % (GI%)",81.6%
same,inhibition at 10 µM,"[7]; HOP-92, read-out: growth inhibition % (GI%)",37.7%
same,inhibition at 10 µM,[8],25.4%
same,inhibition at 10 µM,[9],17.9%
same,inhibition at 10 µM,"[10]; SK-MEL-5, read-out: growth inhibition % (GI%)",< 15%
same,inhibition at 10 µM,"[11]; UACC-257, read-out: growth inhibition % (GI%)",< 15%
same,inhibition at 10 µM,"[12]; MCF7, read-out: growth inhibition % (GI%)",32.5%
same,inhibition at 10 µM,"[13]; MOLT-4, read-out: growth inhibition % (GI%)",< 15%
same,inhibition at 10 µM,"[14]; RPMI-8226, read-out: growth inhibition % (GI%)",< 15%
same,inhibition at 10 µM,"[15]; DU-145, read-out: growth inhibition % (GI%)",70.9%
same,inhibition at 10 µM,[16],82.6%
same,inhibition at 10 µM,"[17]; HCT-15, read-out: growth inhibition % (GI%)",32.2%
same,inhibition at 10 µM,"[18]; SK-OV-3, read-out: growth inhibition % (GI%)",69.9%
same,inhibition at 10 µM,"[19]; SK-MEL-2, read-out: growth inhibition % (GI%)",< 15%
same,inhibition at 10 µM,"[20]; NCI-H522, read-out: growth inhibition % (GI%)",< 15%
same,inhibition at 10 µM,[21],< 15%
same,inhibition at 10 µM,[22],67.2%
same,inhibition at 10 µM,"[23]; KM12, read-out: growth inhibition % (GI%)",3.59%
same,inhibition at 10 µM,"[24]; SW-620, read-out: growth inhibition % (GI%)",34.1%
same,inhibition at 10 µM,"[25]; OVCAR-4, read-out: growth inhibition % (GI%)",41.4%
same,inhibition at 10 µM,"[26]; TK-10, read-out: growth inhibition % (GI%)",< 15%
same,inhibition at 10 µM,[27],60.1%
same,inhibition at 10 µM,"[28]; NCI-H226, read-out: growth inhibition % (GI%)",61.8%
same,inhibition at 10 µM,"[29]; SF-539, read-out: growth inhibition % (GI%)",58.7%
same,inhibition at 10 µM,"[30]; 786-0, read-out: growth inhibition % (GI%)",92.8%
same,inhibition at 10 µM,[31],34.2%
same,inhibition at 10 µM,"[32]; A549, read-out: growth inhibition % (GI%)",50.6%
same,inhibition at 10 µM,"[33]; OVCAR-5, read-out: growth inhibition % (GI%)",23.1%
same,inhibition at 10 µM,"[34]; K562, read-out: growth inhibition % (GI%)",26.4%
same,inhibition at 10 µM,"[35]; HCC 2998, read-out: growth inhibition % (GI%)",< 15%
same,inhibition at 10 µM,"[36]; SNB-19, read-out: growth inhibition % (GI%)",56.8%
same,inhibition at 10 µM,[37],25.2%
same,inhibition at 10 µM,[38]; Malme-3M,35.8%
same,inhibition at 10 µM,[39],28.1%
same,inhibition at 10 µM,[40],23%
same,inhibition at 10 µM,"[41]; SNB-75, read-out: growth inhibition % (GI%)",20.1%
same,inhibition at 10 µM,"[42]; SK-MEL-28, read-out: growth inhibition % (GI%)",15.2%
same,inhibition at 10 µM,"[43]; U-251, read-out: growth inhibition % (GI%)",49.4%
same,inhibition at 10 µM,"[44]; BT-549, read-out: growth inhibition % (GI%)",< 15%
same,inhibition at 10 µM,"[45]; IGROV-1, read-out: growth inhibition % (GI%)",44.5%
same,inhibition at 10 µM,[46],56.5%
"O=C(CSc1nc2ccccc2c(=O)n1-c1ccc(Cl)cc1)NN=Cc1ccc(N2CCOCC2)cc1 [6k, 2-((3–(4-chlorophenyl)-4-oxo-3,4-dihydroquinazolin-2-yl)thio)-N'-(4-morpholinobenzylidene) acetohydrazide]",inhibition at 10 µM,"[1]; HS 578T, 10 μM",< 15%
same,inhibition at 10 µM,"[2]; SF-268, 10 μM, read-out: growth inhibition % (GI%)",< 15%
same,inhibition at 10 µM,"[3]; A498, 10 μM, read-out: growth inhibition % (GI%)",< 15%
same,inhibition at 10 µM,"[4]; HCT-116, 10 μM, read-out: growth inhibition % (GI%)",< 15%
same,inhibition at 10 µM,"[5]; COLO-205, 10 μM, read-out: growth inhibition % (GI%)",< 15%
same,inhibition at 10 µM,"[6]; HOP-62, 10 μM, read-out: growth inhibition % (GI%)",< 15%
same,inhibition at 10 µM,"[7]; HOP-92, 10 μM, read-out: growth inhibition % (GI%)",< 15%
same,inhibition at 10 µM,"[8]; T-47D, 10 μM",< 15%
same,inhibition at 10 µM,[9]; 10 μM,< 15%
same,inhibition at 10 µM,"[10]; SK-MEL-5, 10 μM, read-out: growth inhibition % (GI%)",< 15%
same,inhibition at 10 µM,"[11]; UACC-257, 10 μM, read-out: growth inhibition % (GI%)",< 15%
same,inhibition at 10 µM,"[12]; MCF7, 10 μM, read-out: growth inhibition % (GI%)",< 15%
same,inhibition at 10 µM,"[13]; MOLT-4, 10 μM, read-out: growth inhibition % (GI%)",< 15%
same,inhibition at 10 µM,"[14]; RPMI-8226, 10 μM, read-out: growth inhibition % (GI%)",< 15%
same,inhibition at 10 µM,"[15]; DU-145, 10 μM, read-out: growth inhibition % (GI%)",< 15%
same,inhibition at 10 µM,[16]; 10 μM,< 15%
same,inhibition at 10 µM,"[17]; HCT-15, 10 μM, read-out: growth inhibition % (GI%)",< 15%
same,inhibition at 10 µM,"[18]; SK-OV-3, 10 μM, read-out: growth inhibition % (GI%)",< 15%
same,inhibition at 10 µM,"[19]; SK-MEL-2, 10 μM, read-out: growth inhibition % (GI%)",< 15%
same,inhibition at 10 µM,"[20]; NCI-H522, 10 μM, read-out: growth inhibition % (GI%)",< 15%
same,inhibition at 10 µM,[21]; 10 μM,< 15%
same,inhibition at 10 µM,[22],< 15%
same,inhibition at 10 µM,"[23]; KM12, 10 μM, read-out: growth inhibition % (GI%)",< 15%
same,inhibition at 10 µM,"[24]; SW-620, 10 μM, read-out: growth inhibition % (GI%)",< 15%
same,inhibition at 10 µM,"[25]; OVCAR-4, 10 μM, read-out: growth inhibition % (GI%)",< 15%
same,inhibition at 10 µM,"[26]; TK-10, 10 μM, read-out: growth inhibition % (GI%)",< 15%
same,inhibition at 10 µM,[27]; 10 μM,< 15%
same,inhibition at 10 µM,"[28]; NCI-H226, 10 μM, read-out: growth inhibition % (GI%)",< 15%
same,inhibition at 10 µM,"[29]; SF-539, 10 μM, read-out: growth inhibition % (GI%)",< 15%
same,inhibition at 10 µM,"[30]; 786-0, 10 μM, read-out: growth inhibition % (GI%)",< 15%
same,antiproliferative activity against all tested cell lines,[31]; 10 μM single dose,did not show activity
same,inhibition at 10 µM,[31],< 0%
same,inhibition at 10 µM,"[32]; A549/ATCC, 10 μM, read-out: growth inhibition % (GI%)",< 15%
same,inhibition at 10 µM,"[33]; OVCAR-5, 10 μM, read-out: growth inhibition % (GI%)",< 15%
same,inhibition at 10 µM,"[34]; K562, K-562, 10 μM, read-out: growth inhibition % (GI%)",< 15%
same,inhibition at 10 µM,"[35]; HCC-2998, 10 μM, read-out: growth inhibition % (GI%)",< 15%
same,inhibition at 10 µM,"[36]; SNB-19, 10 μM, read-out: growth inhibition % (GI%)",< 15%
same,inhibition at 10 µM,[37]; 10 μM,< 15%
same,inhibition at 10 µM,"[38]; MALME-3M, 10 μM",< 15%
same,inhibition at 10 µM,[39],< 15%
same,inhibition at 10 µM,[40]; 10 μM,< 15%
same,inhibition at 10 µM,"[41]; SNB-75, 10 μM, read-out: growth inhibition % (GI%)",< 15%
same,inhibition at 10 µM,"[42]; SK-MEL-28, 10 μM, read-out: growth inhibition % (GI%)",< 15%
same,inhibition at 10 µM,"[43]; U-251, U251, 10 μM, read-out: growth inhibition % (GI%)",< 15%
same,inhibition at 10 µM,"[44]; BT-549, 10 μM, read-out: growth inhibition % (GI%)",< 15%
same,inhibition at 10 µM,"[45]; IGROV-1, IGROV1, 10 μM, read-out: growth inhibition % (GI%)",< 15%
same,inhibition at 10 µM,"[46]; LOX IMIV, 10 μM",< 15%
